Test results published in ChEMBL document CHEMBL5038665, “Identification of the Benzoimidazole Compound as a Selective FLT3 Inhibitor by Cell-Based High-Throughput Screening of a Diversity Library” (J Med Chem, 2022).
Active and inactive are the calls of the source. The calls are words filed in the database; no cut-off is given here.

How the values were obtained:
MOLM-13 [1] = assay: Induction of apoptosis in human MOLM-13 cells assessed as survival population at 0.1 uM measured after 48 hrs by Annexin V-FITC/propidium iodide staining based flow cytometry(reference value: 97.35 %); type: functional
[2] = Clearance in 12 hrs fasted Sprague-Dawley rat at 2 mg/kg, iv measured upto 24 hrs by LC-MS analysis; type: ADME, organism-based; conditions: in vivo
MOLM-13 [3] = assay: Antiproliferative activity against human MOLM-13 cells harboring FLT3-ITD mutant assessed as reduction in cell viability measured after 72 hrs by MTS assay; type: functional, cell-based; conditions: MOLM-13, 72 h
[4] = Antiproliferative activity against mouse BaF3 cells expressing wild type FLT3 assessed as reduction in cell viability measured after 72 hrs by MTS assay; type: toxicity, cell-based
[5] = Induction of apoptosis in mouse BaF3 cells assessed as survival population at 0.5 uM measured after 48 hrs by Annexin V-FITC/propidium iodide staining based flow cytometry(reference value: 96.35 %); type: toxicity, cell-based; conditions: read-out: Activity
MV4-11 [6] = assay: Antiproliferative activity against human MV4-11 cells harboring FLT3-ITD mutant assessed as reduction in cell viability measured after 72 hrs ny MTS assay; type: functional, cell-based; conditions: MV4-11, 72 h
[7] = Induction of apoptosis in mouse Ba/F3 FLT3-ITD cells assessed as survival population at 0.5 uM measured after 48 hrs by Annexin V-FITC/propidium iodide staining based flow cytometry(reference value: 93.99 %); type: functional
[8] = Cmax in 12 hrs fasted Sprague-Dawley rat at 15 mg/kg, po measured upto 24 hrs by LC-MS analysis; type: ADME, organism-based; design: route oral, dose 15 mg/kg, time <=24; conditions: in vivo
MV4-11 [9] = assay: Induction of apoptosis in human MV4-11 cells assessed as survival population at 1 uM measured after 48 hrs by Annexin V-FITC/propidium iodide staining based flow cytometry(reference value: 98.01 %); type: functional
[10] = Clearance in 12 hrs fasted Sprague-Dawley rat at 15 mg/kg, po measured upto 24 hrs by LC-MS analysis; type: ADME, organism-based; conditions: in vivo
MV4-11 [11] = assay: Antitumor activity against human MV4-11 cells xenografted in Balb/c mouse assessed as tumor growth inhibition at 100 mg/kg, po administered for 28 days; type: functional, organism-based; conditions: time 28.0 day
[12] = Induction of apoptosis in mouse Ba/F3 FLT3-ITD cells assessed as survival population at 1 uM measured after 48 hrs by Annexin V-FITC/propidium iodide staining based flow cytometry(reference value: 93.99 %); type: functional
[13] = Half life in 12 hrs fasted Sprague-Dawley rat at 15 mg/kg, po measured upto 24 hrs by LC-MS analysis; type: ADME, organism-based; conditions: in vivo
[14] = Induction of apoptosis in mouse BaF3 cells assessed as survival population at 1 uM measured after 48 hrs by Annexin V-FITC/propidium iodide staining based flow cytometry(reference value: 96.35 %); type: toxicity, cell-based; conditions: read-out: Activity
[15] = Half life in 12 hrs fasted Sprague-Dawley rat at 2 mg/kg, iv measured upto 24 hrs by LC-MS analysis; type: ADME, organism-based; conditions: in vivo
[16] = Toxicity in Balb/c mouse implanted with mouse Ba/F3 FLT3-ITD cells assessed as body weight loss at 30 to 100 mg/kg, po administered for 14 days; type: organism-based, BaF3; conditions: in vivo, 336 h, time 14 day
[17] = Antitumor activity against mouse Ba/F3 FLT3-ITD cells implanted in Balb/c mouse assessed as increase in survival time at 30 mg/kg, po administered every 24 hrs (Rvb=14 days); type: functional
[18] = Tmax in 12 hrs fasted Sprague-Dawley rat at 15 mg/kg, po measured upto 24 hrs by LC-MS analysis; type: ADME, organism-based; conditions: in vivo
[19] = Toxicity in Balb/c mouse implanted with mouse Ba/F3 FLT3-ITD cells assessed as inflammatory cell infiltration in spleen at 30 to 100 mg/kg, po administered for 14 days; type: organism-based, BaF3; conditions: in vivo, 336 h, time 14 day
MOLM-13 [20] = assay: Induction of apoptosis in human MOLM-13 cells assessed as survival population at 1 uM measured after 48 hrs by Annexin V-FITC/propidium iodide staining based flow cytometry(reference value: 97.35 %); type: functional
[21] = target: Receptor-type tyrosine-protein kinase FLT3 (Homo sapiens, UniProt P36888, ITD); assay: Inhibition of FLT3-ITD mutant (unknown origin)
[22] = Antitumor activity against mouse Ba/F3 FLT3-ITD cells implanted in Balb/c mouse assessed as increase in survival time at 60 mg/kg, po administered every 24 hrs (Rvb=14 days); type: functional
[23] = target: Receptor-type tyrosine-protein kinase FLT3 (Homo sapiens) (UniProt P36888); assay: Inhibition of FLT3 phosphorylation in human MV4-11 cells assessed as reduction in phosphorylated FLT3 level measured after 12 hrs by western blot analysis; type: cell-based
[24] = target: Receptor-type tyrosine-protein kinase FLT3 (Homo sapiens) (UniProt P36888); assay: Inhibition of FLT3-mediated signalling pathway in human MV4-11 cells assessed as inhibition of STAT5 phosphorylation at 50 nM by western blot analysis; type: cell-based
[25] = Induction of apoptosis in mouse Ba/F3 FLT3-ITD cells assessed as survival population at 0.1 uM measured after 48 hrs by Annexin V-FITC/propidium iodide staining based flow cytometry(reference value: 93.99 %); type: functional
[26] = Antitumor activity against mouse Ba/F3 FLT3-ITD cells implanted in Balb/c mouse assessed as increase in survival time at 120 mg/kg, po administered every 24 hrs (Rvb=14 days); type: functional
[27] = Induction of apoptosis in mouse BaF3 cells assessed as survival population at 0.1 uM measured after 48 hrs by Annexin V-FITC/propidium iodide staining based flow cytometry(reference value: 96.35 %); type: toxicity, cell-based; conditions: read-out: Activity
[28] = target: Serine/threonine-protein kinase B-raf (Homo sapiens, UniProt P15056); assay: Inhibition of BRAF (unknown origin)
Sequence of Serine/threonine-protein kinase B-raf (P15056 whole entry): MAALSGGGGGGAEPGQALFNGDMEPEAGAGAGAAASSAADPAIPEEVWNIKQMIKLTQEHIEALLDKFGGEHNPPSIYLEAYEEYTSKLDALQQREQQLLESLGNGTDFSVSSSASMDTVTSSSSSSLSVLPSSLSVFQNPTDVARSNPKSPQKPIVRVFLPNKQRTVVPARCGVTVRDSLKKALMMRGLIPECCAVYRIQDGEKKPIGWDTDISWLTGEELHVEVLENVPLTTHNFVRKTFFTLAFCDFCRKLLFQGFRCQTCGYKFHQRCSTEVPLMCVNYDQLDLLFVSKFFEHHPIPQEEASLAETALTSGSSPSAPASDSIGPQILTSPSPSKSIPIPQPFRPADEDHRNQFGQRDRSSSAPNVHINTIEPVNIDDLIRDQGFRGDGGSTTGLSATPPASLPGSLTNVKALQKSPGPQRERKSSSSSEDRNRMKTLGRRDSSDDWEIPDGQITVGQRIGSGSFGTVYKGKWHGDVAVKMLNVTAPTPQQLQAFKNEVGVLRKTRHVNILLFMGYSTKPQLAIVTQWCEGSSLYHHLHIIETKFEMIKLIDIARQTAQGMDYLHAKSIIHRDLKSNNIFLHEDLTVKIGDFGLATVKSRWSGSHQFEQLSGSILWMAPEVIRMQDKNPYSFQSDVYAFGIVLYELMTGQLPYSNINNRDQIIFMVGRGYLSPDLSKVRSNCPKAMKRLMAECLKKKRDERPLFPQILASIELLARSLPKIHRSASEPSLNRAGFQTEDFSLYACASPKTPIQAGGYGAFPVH

Sequence of Receptor-type tyrosine-protein kinase FLT3 (Homo sapiens) (P36888 whole entry): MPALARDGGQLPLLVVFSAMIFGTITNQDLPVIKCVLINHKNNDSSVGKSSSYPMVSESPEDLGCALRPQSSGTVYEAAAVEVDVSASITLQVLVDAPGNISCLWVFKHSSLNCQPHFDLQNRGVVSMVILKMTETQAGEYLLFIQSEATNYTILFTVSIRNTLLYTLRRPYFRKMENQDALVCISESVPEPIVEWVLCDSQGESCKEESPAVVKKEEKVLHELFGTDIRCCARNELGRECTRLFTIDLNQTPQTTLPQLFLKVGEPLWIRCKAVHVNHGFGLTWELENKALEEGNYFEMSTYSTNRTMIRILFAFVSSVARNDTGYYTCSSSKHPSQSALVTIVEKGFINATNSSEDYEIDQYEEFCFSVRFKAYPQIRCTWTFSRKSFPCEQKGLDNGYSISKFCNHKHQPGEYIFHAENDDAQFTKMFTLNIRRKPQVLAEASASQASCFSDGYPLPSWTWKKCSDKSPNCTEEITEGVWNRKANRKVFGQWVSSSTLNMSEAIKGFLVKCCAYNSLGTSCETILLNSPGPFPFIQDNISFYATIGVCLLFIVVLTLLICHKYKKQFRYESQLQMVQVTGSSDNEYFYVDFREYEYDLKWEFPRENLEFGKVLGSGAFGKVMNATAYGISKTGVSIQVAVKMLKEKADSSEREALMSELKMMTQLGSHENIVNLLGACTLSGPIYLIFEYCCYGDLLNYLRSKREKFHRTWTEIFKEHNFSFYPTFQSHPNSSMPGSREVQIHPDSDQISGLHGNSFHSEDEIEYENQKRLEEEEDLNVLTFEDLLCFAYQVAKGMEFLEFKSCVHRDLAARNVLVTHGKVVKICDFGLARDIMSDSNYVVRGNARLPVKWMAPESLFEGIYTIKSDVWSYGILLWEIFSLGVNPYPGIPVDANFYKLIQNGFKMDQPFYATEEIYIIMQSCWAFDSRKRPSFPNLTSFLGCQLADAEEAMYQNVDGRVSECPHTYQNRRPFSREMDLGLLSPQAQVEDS
Sequence of Receptor-type tyrosine-protein kinase FLT3 (P36888 whole entry, looked up, stated change not applied): as the sequence (P36888 whole entry) above

COc1cc(CNc2ccc3c(c2)ncn3-c2ccccc2)ccc1OCCO
Activity (MOLM-13 [1]): 83.61% | clearance [2]: 43.2 mL/min/kg | IC50 (MOLM-13 [3]): 66.8 nM | IC50 at 72 h [4]: > 400 nM | viability at 48 h, 0.5 µM [5]: 96.7% | IC50 (MV4-11 [6]): 165 nM | Activity [7]: 47.99% | Cmax [8]: 440 ng/mL | Activity (MV4-11 [9]): 68.54% | CL/F [10]: 84.7 mL/min/kg | Activity (MV4-11 [11]): Active | Activity [12]: 43.13% | half-life [13]: 257 min | viability at 48 h, 1 µM [14]: 97.7% | half-life [15]: 18.6 min | Activity [16]: Non-Toxic | Time [17]: 18 days | Tmax [18]: 39 min | Activity [19]: Non-Toxic | Activity (MOLM-13 [20]): 65.52% | IC50 [21]: 70 nM | Time [22]: 22 days | inhibition [23]: Active | inhibition [24]: Active | Activity [25]: 78.45% | Time [26]: 25 days | viability at 48 h, 0.1 µM [27]: 98.3% | IC50 [28]: > 1000 nM
